Experimental data published in US20120225093A1, “Abrogating HIV-1 Infection via Drug-Induced Reactivation of Apoptosis” (UNIVERSITY OF MEDICINE AND DENTISTRY OF NEW JERSEY, priority 2010, published 2012).

Legend:
HIV-1 = experiment: Acute PBMC infection model: p24 and HIV-1 RNA in supernatant; format: cell-based; conditions: for p24 in culture (virus production, p24 capture assay): HIV-infected PBMCs co-cultured with uninfected PBMCs, CPX 30 μM, DEF 250 μM, P2 30 μM added at 48 hr, followed to 144 hr; for HIV-1 RNA production / p24 production: isolate #990,135, compound added at 48 hr, 30 or 60 μM
Method: Using an institutional review board (IRB)-approved protocol, PBMCs were isolated from the blood of healthy donors and stimulated overnight with phytohemagglutinin (PHA) and human IL-2. Stimulated cells were pelleted and resuspended for culture at a final concentration of 0.5×10^6 cells/ml in PHA-free RPMI 1640 medium containing 10% fetal calf serum (v/v), 100 units/ml penicillin G, 100 μg/ml streptomycin, 2 mM […], and 3.5 ng/ml human IL-2 (Medium B). Cultures were incubated at 37° C., 5% CO2, and 95% humidity.
Using an IRB-approved protocol, two donors were recruited to generate clinical viral isolates. One (#990,135) was highly immunocompromised despite on-going combination antiretroviral therapy (cART) (CD4 count <5%; HIV RNA in plasma at log10 5.5 copies/ml). The second (#990,010) was moderately to severely immunocompromised on cART (CD4 count 14-26%; HIV RNA in plasma at log10 3.8-5.0 copies/ml). For infection, 5×10^6 uninfected stimulated PBMCs were co-cultured with 10×10^6 PBMCs from one of the HIV-infected donors in Medium B. On day 3, half of the supernatant was removed and replenished with an equal volume of fresh Medium B. On day 7, the medium was likewise replenished and 7.5×10^6 stimulated uninfected PBMCs were added. On days 10, 17, and 24, half of the supernatant was replenished. On days 14, 21, and 28, stimulated uninfected PBMCs were added. Cells were harvested when p24 reached 250 pg/ml, cryopreserved in freezing medium (90% fetal calf serum, 10% dimethyl sulfoxide), and stored in liquid nitrogen as infected PBMC stock. Cell-free supernatants were stored at −80° C.
Uninfected PBMCs were co-incubated with infected PBMC stock in 24-well microplates at 2 ml/well Medium B, at a 10:1 ratio of uninfected-to-infected cells, and a total cell number of 1×10^6. Cultures were maintained and assayed for 6 consecutive days. […] Leaving the cell layer undisturbed, half the medium in each well was replenished every day, with concurrent adjustment of compound concentration. On each day during the 6-day experiments, a set of wells was harvested: the cells were processed for determination of viability and apoptosis, and the cell-free supernatants were stored at −80° C. for p24 and viral RNA measurements. Experiments were performed at least in duplicate and repeated at least twice.
p24 core antigen in the supernatant was quantified by ELISA (Retrotek HIV-1 p24™; ZeptoMetrix Corp.; Buffalo, N.Y.). HIV-1 RNA copy number in the supernatant was determined with a PCR-based and FDA-approved assay (Amplicor HIV-1 Monitor™; Roche Diagnostics Corp.; Indianapolis, Ind.). IFN-γ and IL-10 in the supernatant were determined by cytometric bead array (Human Th1/Th2 Cytokine Kit II™; BD Biosciences Pharmingen, San Jose, Calif.).
To examine the effect of CPX and DEF on HIV-1 propagation, uninfected PBMCs from healthy donors were co-cultured with HIV-infected PBMCs and virus production was monitored by the p24 capture assay. In untreated cultures, p24 was first detected at 96 hr and increased up to 144 hr (FIG. 1C; Control). […] The profound inhibition is due, at least in part, to activation of apoptosis at later stages of infection. These concentrations are within the clinically relevant range and sufficient to block DOHH activity and eIF5A modification (see below).
To examine the antiretroviral action of CPX in a clinic-derived model, PBMCs infected with patient isolates of HIV-1 were used. Naïve freshly isolated PBMCs from a single donor were infected by co-cultivation with HIV-infected, HLA-nonidentical PBMCs at an initial uninfected/infected cell ratio of 10:1. CPX was added and cells were maintained and monitored for six days. Half of each culture supernatant was replenished daily with CPX-containing or CPX-free medium as appropriate. […]

eIF5A:DOHH complex = biological target: T1, eIF5A:DOHH complex (Homo sapiens, UniProt Q9BU89); experiment: Co-immunoprecipitation of eIF5A with DOHH from 293T cell extracts; format: cell-based; conditions: for association of endogenous DOHH with FLAG-eIF5A: CPX 30 μM, P2 30 μM, DEF 250 μM, DFOX 10 μM, GC7 10 μM, 24 hr; for interaction between endogenous eIF5A and tagged DOHH: 293T transfected with FLAG-DOHH
T1 construct: Endogenous DOHH co-immunoprecipitated with FLAG-eIF5A; expressed in transfected cells; host or cells: 293T cells (DOHH endogenous, FLAG-eIF5A transfected)
T1 sequence (Q9BU89 1-302): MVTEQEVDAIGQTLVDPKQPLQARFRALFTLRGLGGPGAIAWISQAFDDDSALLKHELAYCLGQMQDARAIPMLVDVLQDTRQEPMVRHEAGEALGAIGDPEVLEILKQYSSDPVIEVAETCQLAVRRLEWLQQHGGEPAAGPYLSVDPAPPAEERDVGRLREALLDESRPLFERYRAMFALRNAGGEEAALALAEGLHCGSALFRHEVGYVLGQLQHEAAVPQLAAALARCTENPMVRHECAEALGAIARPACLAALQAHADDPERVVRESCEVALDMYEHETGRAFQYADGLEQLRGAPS
Method: Immunoprecipitation and immunoblotting experiments were carried out as described previously in Hoque et al. Mol Cell Biol 2003, 23:1688-1702.
eIF5A forms tight complexes with its modifying enzymes. Unmodified eIF5A (lysine-50) immunoprecipitates with DHS and deoxyhypusyl-eIF5A interacts with DOHH in vitro. It was discovered that the deoxyhypusyl-eIF5A:DOHH complex formed in vivo can be detected by immunoprecipitation from cell extracts. Taking advantage of this finding, the effects of the drugs on the enzyme-substrate interaction were tested. FLAG-eIF5A was expressed in 293T cells and complexes that immunoprecipitated with anti-FLAG antibody were immunoblotted and probed with antibodies against DOHH. […] As a further control, the DHS inhibitor GC7 was included in this assay. […] As expected, none of the compounds affected the immunoprecipitation of FLAG-eIF5A (FIG. 2D, middle panel) or the expression of endogenous eIF5A (FIG. 2D, bottom panel). Reciprocally, the interaction between endogenous eIF5A and tagged DOHH was inhibited by CPX and DEF (FIG. 2E, right). Similarly, the interaction of endogenous eIF5A with tagged DHS was inhibited by GC7 (FIG. 2E, left) but resistant to CPX and DEF. It is concluded that CPX and DEF, but not P2 or DFOX, target DOHH and inhibit its interaction with its substrate, deoxyhypusylelF5A.

[1] = isolate #990,010, CPX 30 μM added 12 hr after inoculation, six days

Structure (SMILES)	p24 in culture (virus production, p24 capture assay) (HIV-1)	HIV-1 RNA production (HIV-1)	p24 production (HIV-1)	association of endogenous DOHH with FLAG-eIF5A (eIF5A:DOHH complex)	HIV-1 p24 (HIV-1; [1])	extracellular HIV-1 RNA (HIV-1; [1])	interaction between endogenous eIF5A and tagged DOHH (eIF5A:DOHH complex)
Cc1ccn(O)c(=O)c1 [Agent P2, 1-hydroxy-4-methylpyridin-2[1H]-one]	did not impede p24 production	did not curtail the accumulation of p24 or HIV-1 RNA	did not curtail the accumulation of p24 or HIV-1 RNA	neither P2 or DFOX prevented the formation of the eIF5A:DOHH complex			
Cc1cc(C2CCCCC2)n(O)c(=O)c1 [CPX, 6-cyclohexyl-1-hydroxy-4-methylpyridin-2[1H]-one]	reduced p24 to baseline levels	inhibited the production of HIV-1 RNA	completely inhibited p24 production	largely prevented	remained undetectable	did not increase at any time over the initial infectious dose	inhibited
Cc1c(O)c(=O)ccn1C [DEF, 3-hydroxy-1,2-dimethylpyridin-4(1H)-one]	reduced p24 to baseline levels			largely prevented			inhibited
